Experiments:
[1] = biological target: 403 nonmutant kinases; assay: KINOMEscan scanMAX kinome-wide binding scan, interactions mapped; conditions: for Interactions mapped: total = 403 non-mutant kinases, threshold < 35% of control
Protocol: (§1) The kinome-wide binding assay was performed by Eurofins Discovery using the scanMAX screening platform. More information can be found on the Eurofins Discovery Web site.

[2] = biological target: T1, JNK3 (Homo sapiens, UniProt P53779); assay: KINOMEscan scanMAX; format: binding; conditions: read-out: Percent Control
T1 construct: purchased Eurofins Discovery (DiscoverX KINOMEscan scanMAX)
T1 sequence (P53779 whole entry): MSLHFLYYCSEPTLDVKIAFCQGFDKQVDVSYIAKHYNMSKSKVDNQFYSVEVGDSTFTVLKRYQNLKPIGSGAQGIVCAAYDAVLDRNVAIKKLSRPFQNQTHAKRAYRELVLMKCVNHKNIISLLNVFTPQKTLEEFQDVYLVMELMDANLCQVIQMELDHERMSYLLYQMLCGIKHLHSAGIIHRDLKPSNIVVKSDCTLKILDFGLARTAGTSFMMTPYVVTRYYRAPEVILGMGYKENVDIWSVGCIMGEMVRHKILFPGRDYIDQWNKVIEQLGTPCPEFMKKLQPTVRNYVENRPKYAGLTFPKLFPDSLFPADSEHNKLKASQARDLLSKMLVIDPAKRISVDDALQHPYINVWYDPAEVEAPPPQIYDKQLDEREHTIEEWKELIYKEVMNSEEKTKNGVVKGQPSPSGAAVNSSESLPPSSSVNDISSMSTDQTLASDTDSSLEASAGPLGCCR
Protocol: as §1

[3] = biological target: T2, INSRR (Homo sapiens, UniProt P14616); assay: KINOMEscan scanMAX; format: binding; conditions: read-out: Percent Control
T2 construct: purchased Eurofins Discovery (DiscoverX KINOMEscan scanMAX)
T2 sequence (P14616 27-1297): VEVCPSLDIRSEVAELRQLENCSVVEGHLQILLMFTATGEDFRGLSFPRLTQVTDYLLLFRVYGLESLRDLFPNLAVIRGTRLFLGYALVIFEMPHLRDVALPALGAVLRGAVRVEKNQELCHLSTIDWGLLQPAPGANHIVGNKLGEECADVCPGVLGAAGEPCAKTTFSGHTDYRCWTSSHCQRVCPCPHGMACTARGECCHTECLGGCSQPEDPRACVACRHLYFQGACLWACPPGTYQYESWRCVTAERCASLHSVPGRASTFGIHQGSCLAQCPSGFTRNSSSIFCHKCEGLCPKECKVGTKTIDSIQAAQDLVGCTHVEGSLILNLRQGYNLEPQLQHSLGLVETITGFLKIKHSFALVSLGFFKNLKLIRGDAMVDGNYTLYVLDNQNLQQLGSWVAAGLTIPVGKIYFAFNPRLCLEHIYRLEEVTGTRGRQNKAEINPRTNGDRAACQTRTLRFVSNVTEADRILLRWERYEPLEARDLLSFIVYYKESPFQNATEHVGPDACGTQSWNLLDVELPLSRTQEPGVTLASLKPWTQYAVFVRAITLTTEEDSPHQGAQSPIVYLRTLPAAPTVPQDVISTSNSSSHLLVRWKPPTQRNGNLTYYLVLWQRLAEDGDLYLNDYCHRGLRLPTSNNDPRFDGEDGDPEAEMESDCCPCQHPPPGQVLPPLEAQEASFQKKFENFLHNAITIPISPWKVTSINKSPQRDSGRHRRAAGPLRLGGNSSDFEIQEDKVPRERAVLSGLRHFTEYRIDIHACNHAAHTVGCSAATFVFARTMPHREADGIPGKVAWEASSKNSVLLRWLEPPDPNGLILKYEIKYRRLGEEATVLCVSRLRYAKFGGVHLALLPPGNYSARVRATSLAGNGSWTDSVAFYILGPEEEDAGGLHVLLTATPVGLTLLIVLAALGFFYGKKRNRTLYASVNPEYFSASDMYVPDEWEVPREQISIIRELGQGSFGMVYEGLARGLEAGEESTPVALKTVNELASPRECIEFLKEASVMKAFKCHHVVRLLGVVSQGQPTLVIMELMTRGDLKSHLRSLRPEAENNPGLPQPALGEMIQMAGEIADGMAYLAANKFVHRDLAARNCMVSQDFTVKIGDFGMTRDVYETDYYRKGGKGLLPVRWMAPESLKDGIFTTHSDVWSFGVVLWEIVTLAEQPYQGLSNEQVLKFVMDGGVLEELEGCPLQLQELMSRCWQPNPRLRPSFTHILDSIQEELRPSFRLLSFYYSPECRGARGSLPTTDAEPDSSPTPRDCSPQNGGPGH
Protocol: as §1

[4] = biological target: T3, NIM1 (Homo sapiens, UniProt Q8IY84); assay: KINOMEscan scanMAX; format: binding; conditions: read-out: Percent Control
T3 construct: purchased Eurofins Discovery (DiscoverX KINOMEscan scanMAX)
T3 sequence (Q8IY84 whole entry): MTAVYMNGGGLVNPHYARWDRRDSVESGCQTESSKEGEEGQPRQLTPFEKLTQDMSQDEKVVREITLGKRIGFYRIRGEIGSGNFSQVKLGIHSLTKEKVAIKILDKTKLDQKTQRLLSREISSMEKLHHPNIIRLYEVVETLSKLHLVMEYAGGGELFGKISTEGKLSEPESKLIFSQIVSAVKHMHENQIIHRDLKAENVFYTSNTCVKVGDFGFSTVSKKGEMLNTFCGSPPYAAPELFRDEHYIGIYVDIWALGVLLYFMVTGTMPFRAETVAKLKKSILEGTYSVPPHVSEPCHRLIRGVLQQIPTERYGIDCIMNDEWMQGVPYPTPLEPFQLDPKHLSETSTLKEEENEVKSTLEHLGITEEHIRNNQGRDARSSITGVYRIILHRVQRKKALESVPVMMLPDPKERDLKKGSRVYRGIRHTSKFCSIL
Protocol: as §1

[5] = test system: IMR-32 proteome; assay: LC-MS/MS proteome profiling; format: cell-based, Homo sapiens
Protocol: (§2) IMR-32 cells were seeded in T-25 flasks at a density of 1.7 million cells/flask and treated the next day with DMSO (negative control), SK5527 (500 nM) or MK-5108 (500 nM) for 3 or 24 h (data for MK-5108 not discussed in this manuscript). Cell pellets were harvested at the respective time points, lysed, and the concentration of the obtained protein lysates measured as previously described. Details on further sample preparation, LC–MS/MS, and data analysis can be found in the Supporting Information. The LC–MS/MS proteomics data have been deposited to the ProteomeXchange Consortium via the PRIDE partner repository with the data set identifier PXD061539.
(§3) Supplementary Methods 1 – LC-MS/MS proteomics
From each sample, 100 µg of protein was isolated, the volumes were equalized with water and SDS and TEAB were added to a final concentration of 5% and 50 mM, respectively. Proteins were reduced and alkylated by addition of 10 mM Tris(2-carboxyethyl)phosphine hydrochloride and 40 mM chloroacetamide and incubation for 30 minutes at 25°C in the dark. Phosphoric acid was added to a final concentration of 1.2%, and samples were subsequently diluted 7-fold with binding buffer containing 90% methanol in 100 mM TEAB, pH 7.55. The samples were loaded on the 96-well S-Trap™ plate (Protifi), placed on top of a deepwell plate, and centrifuged for 2 min at 1,500 x g at RT. […]

[6] = biological target: T4, AURKA (Homo sapiens, UniProt O14965); assay: LC-MS/MS proteome profiling; format: cell-based; parameters: endogenous in cells; host or cells: IMR-32; key to Significant (3h SK5527vs3h DMSO) FDR0 05 / Significant (24h SK5527vs24h DMSO) FDR0 05: +: Statistical significance for differential regulation was set to a false discovery rate (FDR) of < 0.05 and |log2FC| = 2
T4 sequence (O14965 1-403): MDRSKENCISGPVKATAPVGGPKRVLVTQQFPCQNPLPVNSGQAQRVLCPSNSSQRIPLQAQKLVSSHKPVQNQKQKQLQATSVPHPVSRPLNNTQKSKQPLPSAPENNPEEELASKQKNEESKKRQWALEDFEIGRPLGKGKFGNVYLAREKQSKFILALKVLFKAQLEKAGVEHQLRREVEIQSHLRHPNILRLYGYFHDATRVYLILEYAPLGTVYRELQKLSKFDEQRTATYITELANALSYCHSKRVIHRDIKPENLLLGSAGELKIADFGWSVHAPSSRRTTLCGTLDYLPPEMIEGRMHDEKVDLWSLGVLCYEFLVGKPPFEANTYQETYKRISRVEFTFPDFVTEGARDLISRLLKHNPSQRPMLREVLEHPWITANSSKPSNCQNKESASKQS
Protocol: as §2, §3
From each sample, 100 µg of protein was isolated, the volumes were equalized with water and SDS and TEAB were added to a final concentration of 5% and 50 mM, respectively. Proteins were reduced and alkylated by addition of 10 mM Tris(2-carboxyethyl)phosphine hydrochloride and 40 mM chloroacetamide and incubation for 30 minutes at 25°C in the dark. Phosphoric acid was added to a final concentration of 1.2%, and samples were subsequently diluted 7-fold with binding buffer containing 90% methanol in 100 mM TEAB, pH 7.55. The samples were loaded on the 96-well S-Trap™ plate (Protifi), placed on top of a deepwell plate, and centrifuged for 2 min at 1,500 x g at RT. After protein binding, the S-trap™ plate was washed three times by adding 200 µl binding buffer and centrifugation for 2 min at 1,500 x g at RT. A new deepwell receiver plate was placed below the 96-well S-Trap™ plate and 50 mM TEAB containing trypsin (1/100, w/w) was added for digestion overnight at 37°C.
Using centrifugation for 2 min at 1,500 x g, peptides were eluted in three steps, first with 80 µl 50 mM TEAB, then with 80 µl 0.2% formic acid (FA) in water and finally with 80 µl 0.2% FA in water/acetonitrile (ACN) (50/50, v/v). Eluted peptides were dried completely by vacuum centrifugation.
Peptides were re-dissolved in 20 µl loading solvent A (0.1% trifluoroacetic acid in water/acetonitrile (ACN) (99.5:0.5, v/v)) of which 2 µl of sample was injected for LC-MS/MS analysis on an Ultimate 3000 ProFlow nanoLC system in-line connected to a Orbitrap Exploris 240 mass spectrometer (Thermo) equipped with pneu-Nimbus dual ion source (Phoenix S&T). Trapping was performed at 20 μl/min for 2 min in loading solvent A on a PepMap™ Neo Trap column (Thermo scientific, 300 μm internal diameter (I.D.), 5 μm beads). The peptides were separated on a 250 mm Odyssey Ultimate, 1.7µm C18, 75 µm inner diameter (Ionopticks) kept at a constant temperature of 45°C. Peptides were eluted by a gradient reaching 26,4 % MS solvent B (0.1% FA in acetonitrile) after 80 min, 44% MS solvent B at 95 min, 56% MS solvent B at 100min followed by a 5-minutes wash at 56% MS solvent B and re-equilibration with MS solvent A (0.1% FA in water). The flow rate was set to 250 nl/min. The mass spectrometer was operated in data-independent mode, automatically switching between MS and MS/MS acquisition. Full-scan MS spectra ranging from 375-1500 m/z with a normalized target value of 300%, a maximum fill time of 25 ms and a resolution at of 60,000 were followed by 30 quadrupole isolations with a precursor isolation width of 10 m/z for HCD fragmentation at an NCE of 30% after filling the trap at a normalized target value of 2000% for maximum injection time of 45 ms. MS2 spectra were acquired at a resolution of 15,000 with a scan range of 200-1800 m/z in the Orbitrap analyser without multiplexing. The isolation intervals were set from 400 – 900 m/z with a width of 10 m/z using window placement optimization. The polydimethylcyclosiloxane background ion at 445.120028 Da was used for internal calibration (lock mass) and QCloud has been used to control instrument longitudinal performance during the project.
Analysis of the mass spectrometry data was performed in DiaNN (version 1.9). Precursor false discovery rate was […]
set at 1%. […]

[7] = biological target: T4, AURKA; assay: AURKA protein levels, Western blot in SH-SY5Y with ABCB1 knockdown; format: cell-based; parameters: endogenous in cells; conditions: 1 μM, 24h

AURKA degradation, ABCB1 knockdown compared to wild-type (in words) [7] | Structure (SMILES) | kinases significantly engaged (in words) ([1]; 100 nM) | Interactions mapped ([1]; 100nM) | nonmutant kinases bound in addition to AURKA, out of 403 ([1]; 1000 nM) | Interactions mapped ([1]; 1000nM) | remaining binding at 0.1 µM ([2]; 100 nM) [%] | remaining binding at 1 µM ([2]; 1000 nM) [%] | remaining binding at 0.1 µM ([3]; 100 nM) [%] | remaining binding at 1 µM ([3]; 1000 nM) [%] | remaining binding at 0.1 µM ([4]; 100 nM) [%] | remaining binding at 1 µM ([4]; 1000 nM) [%] | CRBN neosubstrates (GSPT1, CSNK1A1, ZFP91, SALL4, ZNF654, ZNF787, E4F1, PATZ1) (in words) ([5]; IMR-32) | degradation selectivity profile (in words) ([5]; IMR-32, 3h of treatment) | Significant (3h SK5527vs3h DMSO) FDR0 05 ([6]; IMR-32, 3h) | logFC (3h SK5527vs3h DMSO) ([6]; IMR-32, 3h) | Significant (24h SK5527vs24h DMSO) FDR0 05 ([6]; IMR-32, 24h) | logFC (24h SK5527vs24h DMSO) ([6]; IMR-32, 24h) | logFC AURKA ([6]; SK5527 vs DMSO (3h)) | logFC AURKA ([6]; SK5527 vs DMSO (24h))
 | Cc1cc(Nc2ccc(F)c(CC3(C(=O)N4CCC(F)(CN5CCN(c6ccc(N7CCC(=O)NC7=O)cn6)CC5)CC4)CCN(Cc4cccc(Cl)c4F)CC3)n2)n[nH]1 [SK5527] | only AURKA and TrKA | 2 | 9 | 10 | 63 | 69 | 97 | 90 | 58 | 76 | not significantly downregulated | AURKA as the only significantly downregulated protein | + | -3.27 | + | -3.1 | -3.27 | -3.1
stronger AURKA degradation | O=C1CCC(N2C(=O)c3cccc(OCCOCCOCCOCCNC(=O)[C@]4(Cc5cccc(Nc6nccs6)n5)CC[C@@H](Oc5cccc(Cl)c5F)CC4)c3C2=O)C(=O)N1 (stereo partly shown) [SK2188, reference compound] |  |  |  |  |  |  |  |  |  |  |  |  |  |  |  |  |  | 
